Test results taken from US12534474B2, “Dihydrofuropyridine derivatives as rho-kinase inhibitors” (CHIESI FARMACEUTICI S.P.A., priority 2020, dated 2026).

Experiments:
Type in all cases: biochemical
ROCK1 = ROCK1 (Homo sapiens, UniProt Q13464); assay: In vitro Rho kinase inhibitory activity assay, ADP-Glo, Method B (ATP 200 μM); details: read-out: Method B ROCK 1 (Ki)
Protocol: (§1) In Vitro Inhibitory Activity Assay Description (Method B)
(§2) The effectiveness of compounds of the present invention to inhibit Rho kinase activity can be determined in a 10 μL assay containing 40 mM Tris pH7.5, 20 mM MgCl2 0.1 mg/mL BSA, 50 μM DTT and 2.5 μM peptide substrate (Myelin Basic Protein) using an ADP-Glo kit (Promega). Compounds were dissolved in DMSO such that the final concentration of DMSO was 1% in the assay. All reactions/incubations are performed at 25° C. Compound (2 ul) and either Rho kinase 1 or 2 (4 μL) were mixed and incubated for 30 min. Reactions were initiated by addition of ATP (4 μL) such that the final concentration of ATP in the assay was 200 μM. After a 1 hour incubation 10 μL of ADP-Glo Reagent was added and after a further 45 minute incubation 20 ul of Kinase Detection Buffer was added and the mixture incubated for a further 30 minutes. The luminescent signal was measured on a luminometer. […] Compounds were tested in dose-response format and the inhibition of kinase activity was calculated at each concentration of compound. To determine the IC50 (concentration of compound required to inhibit 50% of the enzyme activity) data were fit to a plot of % inhibition vs Log 10 compound concentration using a sigmoidal fit with a variable slope and fixing the maximum to 100% and the minimum to 0%. To determine the Ki values the Cheng-Prusoff equation was utilized (Ki=IC50/(1+[S]/Km).

ROCK2 = ROCK2 (Homo sapiens, UniProt O75116); assay: as above; details: read-out: Method B ROCK 2 (Ki)
Protocol: as §1, §2

PKA = PKA (Homo sapiens, UniProt P17612); assay: In vitro inhibitory activity assay for PKA, ADP-Glo, reported as selectivity ratio vs ROCK2; details: Ki for PKA divided by Ki of ROCK2 (Method B)
Protocol: In Vitro Inhibitory Activity Assay Description for PKA
The effectiveness of compounds of the present invention to inhibit PKA activity can be determined in a 10 μL assay containing 40 mM Tris pH7.5, 20 mM MgCl2 0.1 mg/mL BSA, 50 μM DTT and 260 μM peptide substrate (kemptide) using an ADP-Glo kit (Promega). Compounds were dissolved in DMSO such that the final concentration of DMSO was 1% in the assay. All reactions/incubations are performed at 25° C. Compound and PKA enzyme (6 μL) were mixed and incubated for 30 min. Reactions were initiated by addition of ATP (4 μL) such that the final concentration of ATP in the assay was 10 μM. After a 30 minute incubation 10 μL of ADP-Glo Reagent was added and after a further 1 hour incubation 20 μL of Kinase Detection Buffer was added and the mixture incubated for a further 45 minutes. The luminescent signal was measured on a luminometer. […] Compounds were tested in dose-response format and the inhibition of kinase activity was calculated at each concentration of compound. To determine the IC50 (concentration of compound required to inhibit 50% of the enzyme activity) data were fit to a plot of % inhibition vs Log10 compound concentration using a sigmoidal fit with a variable slope and fixing the maximum to 100% and the minimum to 0%. To determine the Ki values the Cheng-Prusoff equation was utilized (Ki=IC50/(1+[S]/Km).
In vitro inhibitory activities for PKA were reported as selectivity ratio vs. ROCK2. Selectivity ratio PKA/ROCK2 was calculated by dividing the Ki value for PKA by Ki value of ROCK2 (Method B) and reported into table 1.

Sequence of ROCK1 (Q13464 whole entry): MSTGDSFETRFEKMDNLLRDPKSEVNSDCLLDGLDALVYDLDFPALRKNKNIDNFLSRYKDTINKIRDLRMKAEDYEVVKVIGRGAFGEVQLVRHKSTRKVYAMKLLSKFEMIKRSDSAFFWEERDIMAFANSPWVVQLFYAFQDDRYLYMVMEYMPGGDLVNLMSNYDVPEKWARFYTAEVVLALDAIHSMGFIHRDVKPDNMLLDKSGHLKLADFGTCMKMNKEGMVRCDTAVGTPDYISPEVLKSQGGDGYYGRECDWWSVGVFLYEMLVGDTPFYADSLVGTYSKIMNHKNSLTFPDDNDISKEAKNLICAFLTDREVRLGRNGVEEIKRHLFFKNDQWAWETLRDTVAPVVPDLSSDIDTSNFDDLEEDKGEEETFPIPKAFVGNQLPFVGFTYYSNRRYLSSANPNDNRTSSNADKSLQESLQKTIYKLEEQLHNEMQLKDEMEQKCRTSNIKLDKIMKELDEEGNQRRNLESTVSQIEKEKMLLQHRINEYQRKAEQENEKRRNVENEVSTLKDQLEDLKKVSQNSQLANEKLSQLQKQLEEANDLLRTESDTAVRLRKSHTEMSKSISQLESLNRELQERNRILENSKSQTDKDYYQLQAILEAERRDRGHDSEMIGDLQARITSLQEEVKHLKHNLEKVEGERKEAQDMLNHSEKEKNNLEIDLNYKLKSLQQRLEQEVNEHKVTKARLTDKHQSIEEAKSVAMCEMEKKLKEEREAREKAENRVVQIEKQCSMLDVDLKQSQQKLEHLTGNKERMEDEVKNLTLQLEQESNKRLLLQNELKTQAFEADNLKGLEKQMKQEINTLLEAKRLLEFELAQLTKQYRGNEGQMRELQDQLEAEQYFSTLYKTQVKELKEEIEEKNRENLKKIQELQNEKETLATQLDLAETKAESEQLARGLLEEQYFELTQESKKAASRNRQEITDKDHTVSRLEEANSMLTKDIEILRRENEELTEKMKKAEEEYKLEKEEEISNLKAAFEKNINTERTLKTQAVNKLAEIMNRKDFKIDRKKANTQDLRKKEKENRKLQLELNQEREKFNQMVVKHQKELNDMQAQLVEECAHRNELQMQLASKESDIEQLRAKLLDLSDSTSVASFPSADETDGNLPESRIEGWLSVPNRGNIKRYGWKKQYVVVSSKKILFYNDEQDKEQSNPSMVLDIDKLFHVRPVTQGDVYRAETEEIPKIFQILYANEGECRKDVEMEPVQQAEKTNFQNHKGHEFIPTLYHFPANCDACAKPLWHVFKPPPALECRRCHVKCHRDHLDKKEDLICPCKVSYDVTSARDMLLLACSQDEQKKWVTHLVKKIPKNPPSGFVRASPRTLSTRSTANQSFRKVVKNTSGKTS
Sequence of ROCK2 (O75116 whole entry): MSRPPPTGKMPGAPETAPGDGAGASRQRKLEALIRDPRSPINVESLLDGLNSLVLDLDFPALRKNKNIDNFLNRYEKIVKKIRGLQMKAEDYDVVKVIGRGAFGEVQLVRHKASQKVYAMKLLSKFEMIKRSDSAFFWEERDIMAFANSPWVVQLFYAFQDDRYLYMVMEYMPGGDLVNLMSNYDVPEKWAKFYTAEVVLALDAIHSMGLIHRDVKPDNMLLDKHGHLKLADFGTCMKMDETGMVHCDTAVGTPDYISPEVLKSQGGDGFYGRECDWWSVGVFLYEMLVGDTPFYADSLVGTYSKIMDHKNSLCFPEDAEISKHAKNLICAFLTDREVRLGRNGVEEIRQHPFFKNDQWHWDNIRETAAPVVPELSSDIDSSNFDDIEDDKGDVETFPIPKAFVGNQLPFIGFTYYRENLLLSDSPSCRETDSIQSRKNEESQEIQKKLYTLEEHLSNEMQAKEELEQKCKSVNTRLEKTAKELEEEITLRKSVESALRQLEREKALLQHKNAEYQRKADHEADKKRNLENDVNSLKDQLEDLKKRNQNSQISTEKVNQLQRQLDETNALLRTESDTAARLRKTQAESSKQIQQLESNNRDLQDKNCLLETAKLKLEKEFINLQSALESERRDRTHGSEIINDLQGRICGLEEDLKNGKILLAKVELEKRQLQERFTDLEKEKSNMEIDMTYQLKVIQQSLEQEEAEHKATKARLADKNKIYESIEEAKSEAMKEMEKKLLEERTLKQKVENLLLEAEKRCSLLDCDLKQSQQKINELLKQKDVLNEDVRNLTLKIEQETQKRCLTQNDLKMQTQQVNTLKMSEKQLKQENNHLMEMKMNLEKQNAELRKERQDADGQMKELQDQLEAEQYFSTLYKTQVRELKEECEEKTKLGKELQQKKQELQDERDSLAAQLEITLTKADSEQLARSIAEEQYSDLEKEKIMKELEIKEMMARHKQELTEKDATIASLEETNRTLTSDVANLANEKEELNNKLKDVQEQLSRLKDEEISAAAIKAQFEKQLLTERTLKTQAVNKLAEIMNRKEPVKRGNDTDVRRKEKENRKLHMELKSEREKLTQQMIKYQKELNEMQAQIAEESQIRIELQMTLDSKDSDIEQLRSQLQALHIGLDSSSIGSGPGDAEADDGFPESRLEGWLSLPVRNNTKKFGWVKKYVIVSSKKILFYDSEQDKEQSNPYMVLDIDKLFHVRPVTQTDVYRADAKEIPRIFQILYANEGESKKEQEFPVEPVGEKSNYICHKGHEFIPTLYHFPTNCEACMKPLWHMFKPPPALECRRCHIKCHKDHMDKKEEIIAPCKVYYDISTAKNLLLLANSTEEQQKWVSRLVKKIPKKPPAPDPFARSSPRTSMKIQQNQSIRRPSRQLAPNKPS

Structure (SMILES)	Ki (ROCK1) [nM]	Ki (ROCK2) [nM]	Ratio (PKA/ROCK2) (PKA)
Cc1cc(CNC(=O)c2cccc(CNc3ncc(-c4ccncc4)c4c3CCO4)c2)no1 [Example 2, N-((5-methylisoxazol-3-yl)methyl)-3-(((7-(pyridin-4-yl)-2,3-dihydrofuro[3,2-c]pyridin-4-yl)amino)methyl)benzamide]	3 to 30	≤ 3	*** (ratio≥10)
Cn1cnc(CNC(=O)c2cccc(CNc3ncc(-c4ccncc4)c4c3CCO4)c2)c1 [Example 3, N-((1-methyl-1H-imidazol-4-yl)methyl)-3-(((7-(pyridin-4-yl)-2,3-dihydrofuro[3,2-c]pyridin-4-yl)amino)methyl)benzamide]	3 to 30	≤ 3	*** (ratio≥10)
O=C(NCCCF)c1cccc(CNc2ncc(-c3ccncc3)c3c2CCO3)c1 [Example 4, N-(3-fluoropropyl)-3-(((7-(pyridin-4-yl)-2,3-dihydrofuro[3,2-c]pyridin-4-yl)amino)methyl)benzamide]	3 to 30	3 to 30	*** (ratio≥10)
O=C(NCC1(O)CC1)c1cccc(CNc2ncc(-c3ccncc3)c3c2CCO3)c1 [Example 9, N-((1-hydroxycyclopropyl)methyl)-3-(((7-(pyridin-4-yl)-2,3-dihydrofuro[3,2-c]pyridin-4-yl)amino)methyl)benzamide]	3 to 30	3 to 30	*** (ratio≥10)
O=C(NCC1CC1)c1cccc(CNc2ncc(-c3ccncc3)c3c2CCO3)c1 [Example 12, N-(cyclopropylmethyl)-3-(((7-(pyridin-4-yl)-2,3-dihydrofuro[3,2-c]pyridin-4-yl)amino)methyl)benzamide]	≤ 3	3 to 30	** (5≤ratio<10)
O=C(NC1CC(CO)C1)c1cccc(CNc2ncc(-c3ccncc3)c3c2CCO3)c1 (centres unmarked) [Example 13, N-(3-(hydroxymethyl)cyclobutyl)-3-(((7-(pyridin-4-yl)-2,3-dihydrofuro[3,2-c]pyridin-4-yl)amino)methyl)benzamide]	3 to 30	≤ 3	*** (ratio≥10)
COc1ccc(NC(=O)c2cccc(CNc3ncc(-c4ccncc4)c4c3CCO4)c2)nc1 [Example 14, N-(5-methoxypyridin-2-yl)-3-(((7-(pyridin-4-yl)-2,3-dihydrofuro[3,2-c]pyridin-4-yl)amino)methyl)benzamide]	≤ 3	≤ 3	*** (ratio≥10)
O=C(Nc1cccnn1)c1cccc(CNc2ncc(-c3ccncc3)c3c2CCO3)c1 [Example 17, N-(pyridazin-3-yl)-3-(((7-(pyridin-4-yl)-2,3-dihydrofuro[3,2-c]pyridin-4-yl)amino)methyl)benzamide]	3 to 30	3 to 30	*** (ratio≥10)
O=C(Nc1ccncn1)c1cccc(CNc2ncc(-c3ccncc3)c3c2CCO3)c1 [Example 18, 3-(((7-(pyridin-4-yl)-2,3-dihydrofuro[3,2-c]pyridin-4-yl)amino)methyl)-N-(pyrimidin-4-yl)benzamide]	≤ 3	≤ 3	*** (ratio≥10)
CNC(=O)c1cccc(CNc2ncc(-c3ccncc3F)c3c2CCO3)c1 [Example 45, 3-(((7-(3-Fluoropyridin-4-yl)-2,3-dihydrofuro[3,2-c]pyridin-4-yl)amino)methyl)-N-methylbenzamide]	3 to 30	3 to 30	–

Other lines, results leading:

Ki (ROCK1) [nM]	Ki (ROCK2) [nM]	Ratio (PKA/ROCK2) (PKA)	Structure (SMILES)
≤ 3	≤ 3	*** (ratio≥10)	O=C(NC1CC2CN(C3COC3)CC2C1)c1cccc(CNc2ncc(-c3ccncc3)c3c2CCO3)c1 (single isomer, unassigned) [Example 43a, N-(2-(oxetan-3-yl)octahydrocyclopenta[c]pyrrol-5-yl)-3-(((7-(pyridin-4-yl)-2,3-dihydrofuro[3,2-c]pyridin-4-yl)amino)methyl)benzamide]
≤ 3	≤ 3	*** (ratio≥10)	O=C(NC1CC2CN(C3COC3)CC2C1)c1cccc(CNc2ncc(-c3ccncc3)c3c2CCO3)c1 (single isomer, unassigned) [Example 43b, N-(2-(oxetan-3-yl)octahydrocyclopenta[c]pyrrol-5-yl)-3-(((7-(pyridin-4-yl)-2,3-dihydrofuro[3,2-c]pyridin-4-yl)amino)methyl)benzamide]
3 to 30	3 to 30	*** (ratio≥10)	O=C(NCc1cncnc1)c1cccc(CNc2ncc(-c3ccncc3)c3c2CCO3)c1 [Example 5, 3-(((7-(pyridin-4-yl)-2,3-dihydrofuro[3,2-c]pyridin-4-yl)amino)methyl)-N-(pyrimidin-5-ylmethyl)benzamide]
3 to 30	≤ 3	*** (ratio≥10)	O=C(NCc1ccon1)c1cccc(CNc2ncc(-c3ccncc3)c3c2CCO3)c1 [Example 6, N-(isoxazol-3-ylmethyl)-3-(((7-(pyridin-4-yl)-2,3-dihydrofuro[3,2-c]pyridin-4-yl)amino)methyl)benzamide]
3 to 30	3 to 30	*** (ratio≥10)	O=C(NC1CCOCC1)c1cccc(CNc2ncc(-c3ccncc3)c3c2CCO3)c1 [Example 7, 3-(((7-(pyridin-4-yl)-2,3-dihydrofuro[3,2-c]pyridin-4-yl)amino)methyl)-N-(tetrahydro-2H-pyran-4-yl)benzamide]
3 to 30	≤ 3	*** (ratio≥10)	O=C(NCc1cocn1)c1cccc(CNc2ncc(-c3ccncc3)c3c2CCO3)c1 [Example 8, N-(oxazol-4-ylmethyl)-3-(((7-(pyridin-4-yl)-2,3-dihydrofuro[3,2-c]pyridin-4-yl)amino)methyl)benzamide]
≤ 3	≤ 3	*** (ratio≥10)	CN1CCOC(CNC(=O)c2cccc(CNc3ncc(-c4ccncc4)c4c3CCO4)c2)C1 (centres unmarked) [Example 10, N-((4-methylmorpholin-2-yl)methyl)-3-(((7-(pyridin-4-yl)-2,3-dihydrofuro[3,2-c]pyridin-4-yl)amino)methyl)benzamide]
≤ 3	≤ 3	*** (ratio≥10)	O=C(Nc1ccncc1)c1cccc(CNc2ncc(-c3ccncc3)c3c2CCO3)c1 [Example 11, N-(pyridin-4-yl)-3-(((7-(pyridin-4-yl)-2,3-dihydrofuro[3,2-c]pyridin-4-yl)amino)methyl)benzamide]
≤ 3	≤ 3	*** (ratio≥10)	CC(C)(C)N1CC(CNC(=O)c2cccc(CNc3ncc(-c4ccncc4)c4c3CCO4)c2)CC1=O (centres unmarked) [Example 15, N-((1-(tert-butyl)-5-oxopyrrolidin-3-yl)methyl)-3-(((7-(pyridin-4-yl)-2,3-dihydrofuro[3,2-c]pyridin-4-yl)amino)methyl)benzamide]
3 to 30	3 to 30	*** (ratio≥10)	O=C(NC1CC1)c1cccc(CNc2ncc(-c3ccncc3)c3c2CCO3)c1 [Example 16, N-cyclopropyl-3-(((7-(pyridin-4-yl)-2,3-dihydrofuro[3,2-c]pyridin-4-yl)amino)methyl)benzamide]
